{"source": "paper PMC8254048", "about": "“An interdomain hydrogen bond in the Rag GTPases maintains stable mTORC1 signaling in sensing amino acids” (The Journal of Biological Chemistry, 2021)", "key": {"[1]": {"target": "T1, RagA–RagC GTPase heterodimer (Rag GTPases) (Homo sapiens, UniProt Q7L523+Q9HB90, Q9HB90:S266A)", "T1 construct": "gene RRAGA; RagA-RagC heterodimer coexpressed in E. coli BL21(DE3); nucleotide stripped with EDTA, gel filtration", "T1 sequence (Q7L523 whole entry)": "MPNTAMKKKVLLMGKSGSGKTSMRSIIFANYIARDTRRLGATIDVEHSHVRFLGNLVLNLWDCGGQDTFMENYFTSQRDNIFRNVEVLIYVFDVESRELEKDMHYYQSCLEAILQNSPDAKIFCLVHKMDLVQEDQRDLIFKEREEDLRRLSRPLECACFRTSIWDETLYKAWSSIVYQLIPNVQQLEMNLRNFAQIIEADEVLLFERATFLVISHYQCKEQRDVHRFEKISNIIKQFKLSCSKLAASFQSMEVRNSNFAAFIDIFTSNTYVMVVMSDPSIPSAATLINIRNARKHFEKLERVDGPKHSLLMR", "T1 sequence (Q9HB90 whole entry S266A)": "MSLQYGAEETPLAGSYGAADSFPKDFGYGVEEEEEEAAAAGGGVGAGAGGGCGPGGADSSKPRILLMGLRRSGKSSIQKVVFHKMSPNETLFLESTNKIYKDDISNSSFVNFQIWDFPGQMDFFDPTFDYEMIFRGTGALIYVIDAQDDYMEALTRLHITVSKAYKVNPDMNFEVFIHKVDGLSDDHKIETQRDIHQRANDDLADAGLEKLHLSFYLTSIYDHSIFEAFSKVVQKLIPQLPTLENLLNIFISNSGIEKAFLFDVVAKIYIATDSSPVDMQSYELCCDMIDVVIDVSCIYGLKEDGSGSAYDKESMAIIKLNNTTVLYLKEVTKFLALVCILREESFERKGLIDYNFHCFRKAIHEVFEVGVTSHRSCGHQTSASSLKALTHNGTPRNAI", "assay": "half-site GTP hydrolysis after nucleotide preloading", "assay_type": "biochemical", "conditions": "1.2 molar equivalents prebound, labelled GTP added; pH 7.4, 2 mM MgCl2, 25 °C; stimulates hydrolysis on second subunit"}, "[2]": {"target": "T2, RagA–RagC GTPase heterodimer (Rag GTPases) (Homo sapiens, UniProt Q7L523+Q9HB90, Q7L523:T210A)", "T2 construct": "gene RRAGA; RagA-RagC heterodimer coexpressed in E. coli BL21(DE3); nucleotide stripped with EDTA, gel filtration", "T2 sequence (Q7L523 whole entry T210A)": "as the sequence (Q7L523 whole entry) above, with T210A counted along it", "T2 sequence (Q9HB90 whole entry)": "as the sequence (Q9HB90 whole entry S266A) above, with A266S counted along it", "assay": "half-site GTP hydrolysis after nucleotide preloading", "assay_type": "biochemical", "conditions": "1.2 molar equivalents prebound, labelled GTP added; pH 7.4, 2 mM MgCl2, 25 °C; stimulates hydrolysis on second subunit"}}, "data": [{"smiles": "Nc1nc2c(ncn2[C@@H]2O[C@H](COP(=O)(O)OP(=O)(O)NP(=O)(O)O)[C@@H](O)[C@H]2O)c(=O)[nH]1", "note": "[GppNHp]", "values": [{"measurement": "half-site GTP hydrolysis after nucleotide preloading", "setting": "[1]", "result": "prebound GTP or GppNHp stimulated hydrolysis of the later-bound GTP to a much higher level"}, {"measurement": "half-site GTP hydrolysis after nucleotide preloading", "setting": "[2]", "result": "prebound GTP or GppNHp stimulated hydrolysis of the later-bound GTP to a much higher level"}]}]}
